Results from US20080152641A1, “Inhibitors of Siderophore Biosynthesis in Fungi” (Autria Wirtschaftsservice, priority 2004, published 2008).
Square brackets hold non-standard residues; d marks the D form. Peptide text beside a SMILES is read from it. Orn(N5-OH,N5-Ac) = CC(=O)N(O)CCC[C@H](N)C(=O)O

Columns and labels:
Type in all cases: cell-based, Aspergillus fumigatus
ΔsidA/ΔftrACEA17 = assay: Growth of double mutant ΔsidA/ΔftrACEA17 on different iron sources; settings: for growth of ΔsidA/ΔftrACEA17 on host iron compound as sole iron source: 10 μM as the sole iron source; for growth promotion of ΔsidA/ΔftrACEA17: high amounts
Procedure: 10^4 conidia of the respective strain were point-inoculated on AMM plates containing the respective iron source, and incubated for 48 h at 37° C. Blood agar was AMM containing 5% sheep blood.
To analyze the potential role of FtrA in iron uptake of A. fumigatus we deleted the encoding gene in ΔsidACEA17 by replacement with the hygromycin resistance (hph) marker (Punt (1987), loc. cit.).

[1] = test system: ΔAf-sidA, OMO-deficient A. fumigatus strain; assay: Radial growth of siderophore-negative ΔAf-sidA on Aspergillus minimal medium plates
Text: As is described in the appended Examples below, to elucidate the function of Af-sidA, a deletion mutant for this gene was constructed. In the generated mutant allele of ΔAf-sidA, the entire coding region, 279 bp downstream and 137 bp upstream region of the gene was replaced by the hygromycine resistance (hph) marker. […] Consistent with reductive iron assimilation being responsible for the residual growth of ΔAf-sidA, the use of copper-deficient media or the addition of the copper-specific chelator bathocuproine disulfonic acid in a concentration of 30 μM decreased the radial growth rate of ΔAf-sidA 46% and 25% compared to the wt. The growth of ΔAf-sidA was increased to 84% and 99% by supplementation with 1.5 mM FeSO4 and 10 μM ferricrocin, respectively.
(§1) FIG. 3: A. Growth phenotypes of wild type and mutant strains. […] 10^4 conidia of the respective strain were point-inoculated on AMM plates containing the respective iron source, and incubated for 48 h at 37° C. Blood agar was AMM containing 5% sheep blood.

ΔsidACEA17 [2] = assay: Conidia production of ΔsidACEA17; settings: without supplement 99% decrease
Procedure: as §1
(§2) To elucidate the role of sidA a gene deletion mutant from CEA17 by replacement with pyrG was constructed (Weidner (1998), loc. cit.).

ΔsidACEA17 [3] = assay: Growth sensitivity of ΔsidACEA17 to ferrous iron chelator
Procedure: as §1, §2

Δat1 = assay: Radial growth of Δat1 in the presence of BPS; settings: iron depleted conditions, BPS 200 μM, radial growth at 48 h
Procedure: as §1
(§3) FIG. 12: Growth phenotypes of wild type and Δat1, ΔsidD and Δat2 mutant strains. Growth assays were performed during iron replete conditions (+Fe, 10 μM FeSO4), iron depleted conditions (−Fe), iron depleted conditions in the presence of bathophenantroline-disulfonate (BPS, 200 μM) and on blood agar (blood) as described in FIG. 3, radial growth was scored at 48 h.
(§4) Bathophenantroline-disulfonic acid is an inhibitor of the reductive iron assimilatory system and the iron contained in blood agar cannot be readily used by the reductive iron assimilatory system.

ΔsidD = assay: Radial growth of ΔsidD in the presence of BPS; settings: iron depleted conditions, BPS 200 μM, radial growth at 48 h
Procedure: as §1, §3, §4

Δat2 = assay: Radial growth of Δat2 in the presence of BPS; settings: iron depleted conditions, BPS 200 μM, radial growth at 48 h
Procedure: as §1, §3, §4

For “holotransferrin: host iron compound tested as sole iron source”, the “growth of ΔsidA/ΔftrACEA17 on host iron compound as sole iron source” value (ΔsidA/ΔftrACEA17) was “failed to grow”.

`CC(=O)N([O-])CCC[C@@H]1NC(=O)CNC(=O)[C@H](CO)NC(=O)CNC(=O)[C@H](CCCN([O-])C(C)=O)NC(=O)[C@H](CCCN([O-])C(C)=O)NC1=O.[Fe+3]` [ferricrocin] (cyclo(GSG[Orn(N5-OH,N5-Ac)][Orn(N5-OH,N5-Ac)][Orn(N5-OH,N5-Ac)])) was tested, and the “antagonism of growth inhibition by BPS and blood (FIG. 7)” value [1] was “antagonist action”, the “growth of ΔAf-sidA compared to the wt” value ([1]; supplementation with 10 μM) was 99% and the “conidia production of ΔsidACEA17” value (ΔsidACEA17 [2]; supplementation with 10 μM) was 125%. The “growth of ΔsidA/ΔftrACEA17 with siderophore in growth medium” value (ΔsidA/ΔftrACEA17) was “unable to grow unless the growth medium contained ferricrocin”.

In the case of `O=S(=O)([O-])[O-].[Fe+2]` [FeSO4], the “growth of ΔAf-sidA compared to the wt” value ([1]; supplementation with 1.5 mM) is reported as 84% and the “conidia production of ΔsidACEA17” value (ΔsidACEA17 [2]; supplementation with 1.5 mM) is reported as 35%.

In the case of hemin, the “growth of ΔsidA/ΔftrACEA17 on host iron compound as sole iron source” value (ΔsidA/ΔftrACEA17) is reported as “failed to grow”.

In the case of iron chloride, the “conidia production of ΔsidACEA17” value (ΔsidACEA17 [2]; supplementation with 1.5 mM) is reported as 35%.

For `[Cl][Fe]([Cl])[Cl]` [ferric iron], the “growth promotion of ΔsidA/ΔftrACEA17” value (ΔsidA/ΔftrACEA17) was “not”.

For `O=S(=O)(O)c1ccc(-c2ccnc3c2ccc2c(-c4ccc(S(=O)(=O)O)cc4)ccnc23)cc1` [bathophenantroline disulfonate, bathophenanthroline disulfonic acid], the “growth of siderophore negative A fumigatus (FIG. 7)” value [1] was “Growth inhibition”, the “sensitivity of ΔsidACEA17 to chelator” value (ΔsidACEA17 [3]) was “increased sensitivity” and the “growth rate of Δat1” value (Δat1) was “decreased growth rate”. For the same compound, the “growth rate of ΔsidD” value (ΔsidD) was “decreased growth rate” and the “growth rate of Δat2” value (Δat2) was “wild type growth rate”.

In the case of `Cc1cc(-c2ccc(S(=O)(=O)O)cc2)c2ccc3c(-c4ccc(S(=O)(=O)O)cc4)cc(C)nc3c2n1` [bathocuproine disulfonic acid], the “radial growth rate of ΔAf-sidA compared to the wt” value ([1]; addition of chelator at 30 μM) is reported as 25%.

`[Fe+2]` [ferrous iron] was tested, and the “growth promotion of ΔsidA/ΔftrACEA17” value (ΔsidA/ΔftrACEA17) was “slight growth promotion”.
